From patent US8173821B2, “Serotonin and norepinephrine reuptake inhibitor” (Eli Lilly and Company, priority 2009, dated 2012)

What was measured:
serotonin transporter = molecular target: T1, serotonin transporter (Rattus norvegicus, UniProt P31652); test: In vivo transporter occupancy assay; conditions: 1 hr. post dosing
T1 construct: from tissue; host or cells: rat frontal cortex, in vivo
Procedure: Male Sprague-Dawley rats weighing 240-280 gm in groups of three are used to determine serotonin transporter occupancy. Animals are fasted at least 12 hr. before the start of each experiment. Animals are orally administered vehicle or 0.10, 0.33, 1.00, 3.33 or 10.00 mg/kg doses of test compound in 4% Glucose in 25 mM Phosphate buffer, (pH=3.0) containing 0.1, 0.33, 1, 3.33, or 10% CAPTISOL™ (concentration of CAPTISOL™ (%)=dose of test compound (mg/kg)). […] After an additional 40 min., rats are sacrificed via cervical dislocation, and a portion of the frontal cortex is removed and placed on dry ice. An additional control group of three rats is dosed with paroxetine maleate at 12 mg/kg, i.v., followed by N,N-dimethyl-2-(2-amino-4-cyanophenylthio)-benzylamine (10 μg/kg) 1 hr. later.
Tissues are allowed to thaw and then four volumes (w/v) of acetonitrile containing 0.1% formic acid is added. Samples are homogenized using an ultrasonic dismembrator probe and centrifuged for 16 min. at 14,000×g. One volume of the supernatant is added to 3 volumes of water in an autosampler vial and vortexed. Separation is achieved with a Zorbax C18 HPLC column and a mobile phase gradient of from 20% to 90% acetonitrile/water, each with 0.1% formic acid. The total HPLC run time is 3.5 min with an additional 2.0 min re-equilibration time. An API4000 triple quadrupole mass spectrometer (Applied Biosystems, Foster City, Calif., USA) operating in MRM mode is used for detection. The ion transition monitored is 284.1/239.1 m/z for N,N-dimethyl-2-(2-amino-4-cyanophenylthio)-benzylamine.
The level of N,N-dimethyl-2-(2-amino-4-cyanophenylthio)-benzylamine (tracer) in the cortex of vehicle-pretreated animals represents the sum of nonspecific and specific binding and is assigned the value of 0% occupancy (all receptors available to the tracer). The lower level of tracer in animals pretreated with the very high intravenous dose of paroxetine maleate, the positive control group, represents the nonspecific binding and is assigned the value of 100% occupancy (no receptors available to the tracer). Levels of tracer in the cortex following oral administration of test compound are interpolated linearly between these two extremes in order to determine the percent serotonin transporter occupancy. Data are expressed as means±SEM (n=3/group) calculated using Prism version 3.0 (GraphPad Software Inc., San Diego, Calif., USA). The ED80 values are obtained by fitting the data to a sigmoidal curve using nonlinear regression.

[1] = molecular target: T2, Human serotonin (SERT) transporter (Homo sapiens, UniProt P31645); test: In vitro inhibitor activity assay (3H-serotonin uptake); assay type: cell-based; conditions: transfected HEK293 cells, read-out: IC50 hSERT (serotonin reuptake)
T2 construct: expressed in transfected cells; host or cells: HEK293
Procedure: (§1) Human serotonin (SERT) or norepinephrine (NET) transporters are cloned into a pcDNA3 vector and stably transfected into HEK293 cells. Both assays are modified from methods described by Eshleman et al., J. Pharmacol. Exptl Ther., 289, 877-885 (1999)) and Wall et al., Mol. Pharmacol., 47, 544-550 (1995). Cells are grown on poly-D-lysine coated flasks or 96-well plates in D-MEM/F-12 3:1 (3 part of Dulbecco's Modified Eagle Medium in 1 part of Nutrient Mix F-12 medium) containing 5% fetal bovine serum, 250 μg/mL geneticin, and 20 mM Hepes. Cells are plated at 40,000 cells per well in 200 μL of medium and incubated for 18-24 hours at 37° C. prior to the assay. The assay uptake buffer consists of Krebs-Ringer bicarbonate stock supplemented with 1.26% sodium bicarbonate, 20 mM HEPES, and 100 μM each of pargyline and ascorbic acid. Following a 30 minute pre-incubation with the compound or indatraline (as a positive control), ^3H-serotonin or ^3H-norepinephrine is added for 1 min. and 50 sec. The ^3H-substrate is then removed, and the cells washed 4× with 100 μL of cold uptake buffer using multimek. […] Microscint™ 40 is added to each well and the radioactivity is quantitated for 1 min. per well. Results are analyzed as IC50 values using a four-parameter logistic curve fitting program (ActivityBase v5.3.1.22).

[2] = molecular target: T3, Human norepinephrine (NET) transporter (Homo sapiens, UniProt P23975); test: In vitro inhibitor activity assay (3H-norepinephrine uptake); assay type: cell-based; conditions: transfected HEK293 cells, read-out: IC50 hNET (norepinephrine reuptake)
T3 construct: expressed in transfected cells; host or cells: HEK293
Procedure: as §1

[3] = molecular target: T4, Human dopamine transporter (DAT) (Homo sapiens, UniProt Q01959); test: In vitro transporter affinity assay (SPA radioligand binding), DAT; conditions: membranes of transfected HEK293 cells, 3H-WIN 35428; read-out: Ki hDAT
T4 construct: expressed in transfected cells; host or cells: HEK293 (membrane stocks)
Procedure: (§2) Human serotonin transporter (SERT), norepinephrine transporter (NET), or dopamine transporter (DAT) are cloned into a pcDNA3 vector and stably transfected into HEK293 cells. […] Fluoxetine (100 μM) is used to determine non-specific binding, and venlafaxine is used as a positive control. NET membranes are used at a concentration of 8 μg/well in assay buffer containing 50 mM Tris, 300 mM NaCl, and 5 mM KCl (pH 7.4). ^3H-Nisoxetine is used as the tracer, 100 μM desipramine serves as a measure of non-specific binding, and nisoxetine is used as the positive control. For DAT binding assays, the assay buffer is the same as for SERT, membranes are used at 20 μg/well, 100 μM nomifensine is used to determine non-specific binding, ^3H-WIN 35428 (Perkin Elmer) serves as the radiotracer, and nomifensine is used as the positive control. In all cases, 0.5 mg/well of wheat-germ agglutinin scintillation proximity assay beads (WGA-SPA, GE Health Sciences) are used to capture the membranes, and plates are incubated for 3 hours at room temperature. Radioactivity is measured and Ki values calculated using a four-parameter logistic curve fitting program (ActivityBase v5.3.1.22).

[4] = molecular target: T5, norepinephrine transporter (Rattus norvegicus, UniProt Q63380); test: Alpha MMT: monoamine depletion inhibition assay; assay type: in vivo; conditions: rat cortex
T5 construct: from tissue; host or cells: rat cortex, in vivo
Text: DL-Para-chloroamphetamine (PCA) is transported into serotonergic neurons via the neuronal transporter and produces a long-lasting depletion of rat brain serotonin (5-HT) concentrations. Alpha-methyl-m-tyrosine (α-MMT) is a noradrenergic depleting agent that is β-hydroxylated to metaraminol in vivo and actively transported into norepinephrine (NE) neurons via the neuronal transporter producing a decrease in NE levels in rat brain. The depletion of rat brain 5-HT levels by PCA and rat cortical NE concentrations by α-MMT is blocked by agents with 5-HT and NE reuptake inhibitor activity. Compounds of the present invention may be assayed for their activity to prevent the depletion of rat brain 5-HT concentrations by PCA and the depletion of rat cortical NE concentrations by a-MMT in fed and fasted rats in vivo using the following methods.
Male Sprague Dawley rats weighing 160-180 grams are fasted overnight or allowed food ad libidum. […] All compounds are administered at 1 mL/kg. Animals are sacrificed 2 hr. after PCA or α-MMT administration. Tissues are dissected, frozen on dry ice and stored at −70° prior to analysis. […] The data are collected using an EZChrom™ chromatography data system (Scientific Software, San Ramon, Calif.) which calculates peak heights and sample concentrations. Analysis of variance, followed by Tukey's Honestly Significant Difference test post hoc, identifies significant differences between treatment groups (P≦0.05). Doses that antagonized the PCA- or α-MMT-induced depletion of monoamines by 50 percent, (ED50's) are calculated using a best-fit linear regression analysis.

[5] = molecular target: T6, Human norepinephrine transporter (NET) (Homo sapiens, UniProt P23975); test: In vitro transporter affinity assay (SPA radioligand binding), NET; conditions: membranes of transfected HEK293 cells, 3H-nisoxetine; read-out: Ki hNET
T6 construct: expressed in transfected cells; host or cells: HEK293 (membrane stocks)
Procedure: as §2

[6] = molecular target: T7, Human serotonin transporter (SERT) (Homo sapiens, UniProt P31645); test: In vitro transporter affinity assay (SPA radioligand binding), SERT; conditions: membranes of transfected HEK293 cells, 3H-citalopram; read-out: Ki hSERT
T7 construct: expressed in transfected cells; host or cells: HEK293 (membrane stocks)
Procedure: as §2

Formalin induced pain = test: Manual formalin test; assay type: in vivo; conditions: rat
Procedure: The manual formalin test is performed in custom-made Plexiglas boxes approx. 25 cm×25 cm×20 cm in size. A mirror placed at the back of the cage allows the unhindered observation of the formalin injected paw. Rats (Charles River (CRL) Sprague Dawley (SD)) are placed individually in the cubicles at least 30 min. prior to the experiment. All testing is conducted between 08:00 and 14:00 h and the testing room temperature is maintained at 21-23° C. Peripherally administered test compounds are dosed at varying times before the formalin challenge. Formalin (50 μL of a 5% solution in saline) is injected subcutaneously into the dorsal lateral surface of the right hind paw with a 27 gauge needle. Observation starts immediately after the formalin injection. Formalin induced pain is quantified by recording the number of seconds each licking event lasts in 5 min. intervals. The pain scoring is measured for 50 min. after the formalin injection. Two phases of pain behavior are observed as previously described (Wheeler-Aceto, H., Porreca, F. and Cowan, A., The rat paw formalin test: comparison of noxious agents, Pain 40 (1990) 229-238.). The early phase starts immediately after the formalin injection and lasts approximately 5 min., followed by the late phase that starts between minutes 10-15 with a maximum response typically observed around 25-35 min. after the formalin injection. After the 50 min. observation period, animals are sacrificed with CO2.
Of the different scoring parameters reported for the formalin test, the total time spent licking and biting the injected paw is considered to be most relevant. (Abbott et al., The formalin test: scoring properties of the first and second phases of the pain response in rats, Pain 60 (1995) 91-102; Coderre et al., The formalin test: a validation of the weighted-scores method of the behavioral pain rating, Pain 54 (1993) 43-50).) The early phase score is the sum of time spent licking (seconds) from time 0 to 5 min. The late phase score is obtained by adding the total number of seconds spent licking from minute 16 to min. 40 of the observation period. Data are presented as means with standard errors of means (±SEM). Data is evaluated by one-way analysis of variance (ANOVA) and the appropriate contrasts analyzed by Dunnett “t′ test for two sided comparisons. Differences are considered to be significant if the P-value is less than 0.05. (Abbott, supra.; Coderre, supra.; and Wheeler-Aceto, supra.)

T5 sequence (Q63380 1-617): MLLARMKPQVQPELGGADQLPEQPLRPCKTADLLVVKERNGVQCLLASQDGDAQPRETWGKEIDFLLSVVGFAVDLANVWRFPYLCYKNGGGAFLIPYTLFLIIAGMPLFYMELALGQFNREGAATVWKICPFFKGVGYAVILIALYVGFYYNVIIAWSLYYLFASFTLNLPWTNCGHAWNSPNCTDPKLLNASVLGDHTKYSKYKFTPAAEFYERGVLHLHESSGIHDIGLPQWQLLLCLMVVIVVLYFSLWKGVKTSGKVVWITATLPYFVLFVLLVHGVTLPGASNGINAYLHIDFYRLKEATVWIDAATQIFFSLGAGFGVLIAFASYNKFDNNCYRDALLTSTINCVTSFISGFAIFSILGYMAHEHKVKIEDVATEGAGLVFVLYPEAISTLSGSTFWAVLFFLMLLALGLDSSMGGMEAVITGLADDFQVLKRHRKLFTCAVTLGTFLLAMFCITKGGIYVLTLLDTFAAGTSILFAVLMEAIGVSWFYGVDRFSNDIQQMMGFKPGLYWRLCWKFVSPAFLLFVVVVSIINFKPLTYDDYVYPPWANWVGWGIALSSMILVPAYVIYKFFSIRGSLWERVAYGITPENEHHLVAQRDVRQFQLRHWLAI
T1 sequence (P31652 whole entry): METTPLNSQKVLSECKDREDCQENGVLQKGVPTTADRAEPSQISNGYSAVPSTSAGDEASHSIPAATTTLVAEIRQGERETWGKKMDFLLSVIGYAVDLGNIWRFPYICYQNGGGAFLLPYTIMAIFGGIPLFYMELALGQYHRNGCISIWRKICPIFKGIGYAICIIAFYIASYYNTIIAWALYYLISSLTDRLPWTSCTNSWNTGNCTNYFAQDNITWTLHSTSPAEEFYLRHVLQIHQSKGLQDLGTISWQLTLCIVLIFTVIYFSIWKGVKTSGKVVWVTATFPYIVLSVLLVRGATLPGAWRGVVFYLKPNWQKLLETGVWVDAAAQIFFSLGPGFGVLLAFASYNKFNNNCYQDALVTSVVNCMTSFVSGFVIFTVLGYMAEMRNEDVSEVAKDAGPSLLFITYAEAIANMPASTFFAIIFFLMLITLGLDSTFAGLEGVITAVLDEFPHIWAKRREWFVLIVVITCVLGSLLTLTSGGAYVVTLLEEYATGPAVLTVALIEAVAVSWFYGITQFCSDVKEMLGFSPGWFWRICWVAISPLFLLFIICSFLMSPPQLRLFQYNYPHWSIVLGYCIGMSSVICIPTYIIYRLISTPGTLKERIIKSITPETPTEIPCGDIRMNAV
T4 sequence (Q01959 whole entry): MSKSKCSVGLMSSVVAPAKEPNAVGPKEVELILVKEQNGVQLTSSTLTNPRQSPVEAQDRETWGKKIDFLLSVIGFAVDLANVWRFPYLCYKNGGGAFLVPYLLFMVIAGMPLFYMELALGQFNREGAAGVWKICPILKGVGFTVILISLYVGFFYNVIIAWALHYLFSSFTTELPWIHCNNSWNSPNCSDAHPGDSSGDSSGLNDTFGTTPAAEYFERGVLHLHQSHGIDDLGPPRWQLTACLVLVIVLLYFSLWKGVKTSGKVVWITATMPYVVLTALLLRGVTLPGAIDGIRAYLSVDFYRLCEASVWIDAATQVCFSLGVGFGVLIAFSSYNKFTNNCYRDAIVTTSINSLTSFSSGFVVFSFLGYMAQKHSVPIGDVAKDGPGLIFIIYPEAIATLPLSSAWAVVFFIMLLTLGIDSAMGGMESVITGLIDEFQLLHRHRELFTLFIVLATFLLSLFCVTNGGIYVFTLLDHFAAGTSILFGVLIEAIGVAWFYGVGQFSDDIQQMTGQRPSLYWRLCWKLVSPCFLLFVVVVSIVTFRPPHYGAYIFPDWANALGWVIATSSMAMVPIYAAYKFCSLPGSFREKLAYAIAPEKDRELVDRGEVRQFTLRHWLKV
T6 sequence (P23975 whole entry): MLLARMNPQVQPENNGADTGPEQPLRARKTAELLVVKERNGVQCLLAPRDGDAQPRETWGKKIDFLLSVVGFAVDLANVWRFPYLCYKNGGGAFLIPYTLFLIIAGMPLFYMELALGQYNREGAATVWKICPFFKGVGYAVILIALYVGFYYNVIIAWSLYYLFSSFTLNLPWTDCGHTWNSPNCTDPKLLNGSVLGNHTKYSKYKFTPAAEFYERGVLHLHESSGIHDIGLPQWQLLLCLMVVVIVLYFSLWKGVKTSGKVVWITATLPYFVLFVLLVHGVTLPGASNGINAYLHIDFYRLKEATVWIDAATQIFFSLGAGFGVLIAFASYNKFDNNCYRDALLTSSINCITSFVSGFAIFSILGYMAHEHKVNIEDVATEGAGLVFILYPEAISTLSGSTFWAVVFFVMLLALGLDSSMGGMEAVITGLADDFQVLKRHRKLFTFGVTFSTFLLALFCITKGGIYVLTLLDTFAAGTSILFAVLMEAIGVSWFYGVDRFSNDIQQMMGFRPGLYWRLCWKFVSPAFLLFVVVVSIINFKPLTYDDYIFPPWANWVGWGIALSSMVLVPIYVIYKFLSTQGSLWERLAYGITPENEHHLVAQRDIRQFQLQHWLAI
T3 sequence (P23975 whole entry): as above
T2 sequence (P31645 whole entry): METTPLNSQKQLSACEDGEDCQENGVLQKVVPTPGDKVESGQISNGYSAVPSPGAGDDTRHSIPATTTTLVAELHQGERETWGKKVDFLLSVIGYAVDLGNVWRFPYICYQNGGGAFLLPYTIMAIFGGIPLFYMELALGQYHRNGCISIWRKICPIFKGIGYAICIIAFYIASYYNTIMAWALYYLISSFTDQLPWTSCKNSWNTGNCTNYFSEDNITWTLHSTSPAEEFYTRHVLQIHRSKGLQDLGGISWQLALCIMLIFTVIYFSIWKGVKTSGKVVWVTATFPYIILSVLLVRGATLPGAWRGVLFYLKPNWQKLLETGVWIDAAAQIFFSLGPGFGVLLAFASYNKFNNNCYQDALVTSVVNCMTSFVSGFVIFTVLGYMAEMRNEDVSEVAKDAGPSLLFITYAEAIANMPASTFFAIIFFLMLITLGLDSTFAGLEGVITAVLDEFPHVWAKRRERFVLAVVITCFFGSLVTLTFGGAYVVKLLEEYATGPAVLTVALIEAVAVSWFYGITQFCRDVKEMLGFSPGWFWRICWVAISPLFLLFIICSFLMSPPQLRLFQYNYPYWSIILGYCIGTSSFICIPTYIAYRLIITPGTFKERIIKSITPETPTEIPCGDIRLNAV
T7 sequence (P31645 whole entry): as above

Structure (SMILES): COc1ccc(O[C@@H](CC(C)C)[C@H]2CCNC2)c(C)n1.O=C(O)C(O)C(O)C(=O)O [EXAMPLE 19, (3S)-3-(1-(6-methoxy-2-methyl-3-pyridyloxy)-3-methyl-butyl)-pyrrolidine, L-tartrate (S-2)]
- receptor occupancy at 0.3 mg/kg (serotonin transporter; po, rat frontal cortex, 0.3 mg/kg p.o.): 5.9%
- receptor occupancy at 1 mg/kg (serotonin transporter; po, rat frontal cortex, 1 mg/kg p.o.): 25%
- receptor occupancy at 3 mg/kg (serotonin transporter; po, rat frontal cortex, 3 mg/kg p.o.): 43.3%
- receptor occupancy at 10 mg/kg (serotonin transporter; po, rat frontal cortex, 10 mg/kg p.o.): 94%
- receptor occupancy at 30 mg/kg (serotonin transporter; po, rat frontal cortex, 30 mg/kg p.o.): 106%
- absolute ED80 (serotonin transporter occupancy) (serotonin transporter; rat, p.o.): 7.1 mg/kg
- IC50 [1]: 2.15 ± 0.7 nM
- IC50 [2]: 7.34 ± 1.48 nM
- Ki [3]: 461 ± 72 nM
- inhibition at 3 mg/kg ([4]; po, 3 mg/kg p.o., read-out: % Inhibition (α-MMT induced depletion of norepinephrine)): 21%
- inhibition at 10 mg/kg ([4]; po, 10 mg/kg p.o., read-out: % Inhibition (α-MMT induced depletion of norepinephrine)): 79%
- inhibition at 30 mg/kg ([4]; po, 30 mg/kg p.o., read-out: % Inhibition (α-MMT induced depletion of norepinephrine)): 115%
- % Inhibition (α-MMT induced depletion of norepinephrine) ([4]; 0.3 mg/kg p.o.): 7.0%
- % Inhibition (α-MMT induced depletion of norepinephrine) ([4]; 1 mg/kg p.o.): 5.6%
- Ki [5]: 1.08 ± 0.32 nM
- Ki [6]: 0.199 ± 0.02 nM
- ED50 (Formalin induced pain; po, p.o., read-out: ED50 (reduction of pain behavior)): 13.4 mg/kg
- % reduction in total time licking (Formalin induced pain; 1 mg/kg p.o.): 4.5%
- % reduction in total time licking (Formalin induced pain; 3 mg/kg p.o.): 14.4%
- % reduction in total time licking (Formalin induced pain; 10 mg/kg p.o.): 38.0%
- % reduction in total time licking (Formalin induced pain; 30 mg/kg p.o.): 78.4%
